Drawing on PubChem BioAssay AID192 (DTP/NCI, 2004), this text covers T/C for 17 compounds.

“And” between values parts separate entries of the source, which are not always exact repeats. Equal entries are not always repeated. Toxic doses and inconclusive results are not listed. Numbered stars: 1 amine (or outer) side, 2 acyl side, 3 side chain; on linkers, the order of the positions; unused ones are H or OH. Bridge positions count the residues as written; N and C are the ends. Square brackets hold non-standard residues; d marks the D form. Peptide text beside a SMILES is read from it. I, II: the chains in the order shown. Actinocin(1to9) = Cc1c2oc3c(C)ccc(C(=O)[*:2])c3nc-2c(C(=O)[*:1])c(N)c1=O; NMeV = CN[CH](C(=O)O)C(C)C; Sar = CNCC(=O)O

This assay has as its system BDF1 mice, B16 melanoma ip, median survival T/C. Kind of assay: NCI In Vivo Anticancer Drug Screen. Data for tumor model B16 Melanoma (intraperitoneal) in B6D2F1 (BDF1) mice. Conditions: endpoint: median survival time, higher = longer survival. In short, it runs like this:
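The ratio T/C compares compound-treated mice with vehicle-treated controls, using survival or tumor size as the endpoint in a transplantable tumor model.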

[1] abbreviates: dose: 12.5 mg/kg/injection, schedule: Q01DX009 (ip), vehicle: Klucel (hydroxypropylcellulose) (HPC).
Where [2] appears, read: dose: 25.0 mg/kg/injection, schedule: Q01DX009 (ip), vehicle: Klucel (hydroxypropylcellulose) (HPC).
[3] abbreviates: dose: 50.0 mg/kg/injection, schedule: Q01DX009 (ip), vehicle: Klucel (hydroxypropylcellulose) (HPC).
[4] abbreviates: dose: 100.0 mg/kg/injection, schedule: Q01DX009 (ip), vehicle: Klucel (hydroxypropylcellulose) (HPC).
The mark [5] stands for this setting: dose: 100.0 mg/kg/injection, schedule: Q04DX003 (ip), vehicle: Klucel (hydroxypropylcellulose) (HPC).
[6] abbreviates: dose: 200.0 mg/kg/injection, schedule: Q04DX003 (ip), vehicle: Klucel (hydroxypropylcellulose) (HPC).
Setting [7] is: dose: 100.0 mg/kg/injection, schedule: Q01DX009 (ip), vehicle: saline with Tween-80.
Where [8] appears, read: dose: 12.5 mg/kg/injection, schedule: Q01DX009 (ip), vehicle: saline.
[9] abbreviates: dose: 200.0 mg/kg/injection, schedule: Q01DX009 (ip), vehicle: Klucel (hydroxypropylcellulose) (HPC).

For the compound `CCC(C)C1NC(=O)C(NC(=O)c2c3nc4c(C(=O)NC5C(=O)NC(C(C)CC)C(=O)N6CCCC6C(=O)N(C)CC(=O)N(C)C(C(C)C)C(=O)OC5C)ccc(C)c4oc-3c(C)c(=O)c2N)C(C)OC(=O)C(C(C)C)N(C)C(=O)CN(C)C(=O)C2CCCN2C1=O` (stereo not drawn) (I: TIP[Sar][NMeV] / II: TIP[Sar][NMeV]; ester I:1-I:C, II:1-II:C; linker I:N-II:N via Actinocin(1to9); configuration not given here), the T/C runs as follows: (dose: 0.2 mg/kg/injection, schedule: Q01DX001 (ip), vehicle: water) 120 % of control; (dose: 0.4 mg/kg/injection, schedule: Q01DX001 (ip), vehicle: water) 114 % of control; (dose: 0.8 mg/kg/injection, schedule: Q01DX001 (ip), vehicle: water) 123 % of control; (dose: 12.5 micrograms/kg/injection, schedule: Q01DX009 (ip), vehicle: water) 108 % of control; (dose: 25.0 micrograms/kg/injection, schedule: Q01DX009 (ip), vehicle: water) 119 % of control; (dose: 75.0 micrograms/kg/injection, schedule: Q04DX003 (ip), vehicle: water) 115 % of control. Also, the T/C (dose: 150.0 micrograms/kg/injection, schedule: Q04DX003 (ip), vehicle: water) was 114 % of control.

Take `NCCCNCCCCNC(=O)C(O)NC(=O)CCCCCCN=C(N)N` (stereo not drawn): the T/C was 96 % of control (dose: 6.0 mg/kg/injection, schedule: Q01DX009 (ip), vehicle: saline); 96 % of control (dose: 12.0 mg/kg/injection, schedule: Q01DX009 (ip), vehicle: saline); 93 % of control (dose: 24.0 mg/kg/injection, schedule: Q01DX009 (ip), vehicle: saline); 100 % of control (dose: 48.0 mg/kg/injection, schedule: Q01DX009 (ip), vehicle: saline).

For `CCO/C=C1\SC(=S)N(c2cccc(C)c2)C1=O`, the T/C is 94 % of control under setting [1]; 97 % of control under setting [2]; 100 % of control under setting [3]; 87 % of control under setting [4]; 100 % of control under setting [5]; 89 % of control under setting [6]. Besides, the T/C (dose: 400.0 mg/kg/injection, schedule: Q04DX003 (ip), vehicle: Klucel (hydroxypropylcellulose) (HPC)) was 92 % of control.

For the compound `BrCC(Br)CBr`, the T/C is 92 % of control (dose: 25.0 mg/kg/injection, schedule: Q01DX009 (ip), vehicle: saline with Tween-80); 90 % of control (dose: 50.0 mg/kg/injection, schedule: Q01DX009 (ip), vehicle: saline with Tween-80); 90 % of control under setting [7].

Turning to `CNC(Cc1ccccc1)c1ccccc1` (stereo not drawn), the T/C is 105 % of control under setting [2], 105 % of control under setting [3] and 113 % of control under setting [4].

Turning to `Cc1cc(-c2ccc(N=Nc3ccc4c(S(=O)(=O)O)cc(S(=O)(=O)O)c(N)c4c3O)c(C)c2)ccc1N=Nc1ccc2c(S(=O)(=O)O)cc(S(=O)(=O)O)c(N)c2c1O`, the T/C under setting [8] is 121 % of control.

Regarding `NCCCOc1ccc([N+](=O)[O-])cc1Cl`, the T/C by setting is: (dose: 25.0 mg/kg/injection, schedule: Q01DX009 (ip), vehicle: saline) 104 % of control; (dose: 50.0 mg/kg/injection, schedule: Q01DX009 (ip), vehicle: saline) 104 % of control; (dose: 100.0 mg/kg/injection, schedule: Q01DX009 (ip), vehicle: saline) 102 % of control.

In the case of `C[C@]12CC[C@@H]3c4ccc(Oc5nc(N6CC6)nc(N6CC6)n5)cc4CC[C@H]3[C@@H]1CCC2=O`, the T/C (dose: 3.13 mg/kg/injection, schedule: Q01DX009 (ip), vehicle: saline) was 104 % of control; the T/C (dose: 6.25 mg/kg/injection, schedule: Q01DX009 (ip), vehicle: saline) is 113 % of control; the T/C (dose: 6.25 mg/kg/injection, schedule: Q04DX003 (ip), vehicle: saline) is 97 % of control; the T/C under setting [8] was 104 % of control; the T/C (dose: 12.5 mg/kg/injection, schedule: Q04DX003 (ip), vehicle: saline) was 97 % of control; the T/C (dose: 25.0 mg/kg/injection, schedule: Q04DX003 (ip), vehicle: saline) is 102 % of control. The T/C (dose: 50.0 mg/kg/injection, schedule: Q04DX003 (ip), vehicle: saline) is 97 % of control.

For the compound `CCOC(=O)Nc1ccc([N+](=O)[O-])cc1`, the T/C was 113 % of control under setting [4] and 103 % of control under setting [9].

For `CC(=O)O[C@H]1[C@H]2O[C@]23[C@@H]2CC[C@@H]4C[C@@H](O)CC[C@]4(C)[C@H]2CC[C@]3(C)[C@H]1c1ccc(=O)oc1`, the T/C is 92 % of control (dose: 3.75 mg/kg/injection, schedule: Q01DX009 (ip), vehicle: saline with Tween-80) and 90 % of control (dose: 7.5 mg/kg/injection, schedule: Q01DX009 (ip), vehicle: saline with Tween-80).

As to `Cn1c(N)c(C(=O)/C=C/c2ccccc2)c(=O)n(C)c1=O`, the T/C under setting [3] is 88 % of control.

In the case of `O=c1[nH]c(-c2ccccc2)c(-c2ccccc2)[nH]1`, the T/C runs as follows: under setting [7], 90 % of control; (dose: 200.0 mg/kg/injection, schedule: Q01DX009 (ip), vehicle: saline with Tween-80) 95 % of control.

As for `O=c1[nH]cnc2c1cnn2-c1ccccc1`, the T/C is, setting by setting: under setting [4], 90 % of control; under setting [9], 90 % of control; (dose: 400.0 mg/kg/injection, schedule: Q01DX009 (ip), vehicle: Klucel (hydroxypropylcellulose) (HPC)) 103 % of control.

Consider `OCCN1CCCN(CCCN2c3ccccc3Sc3ccc(C(F)(F)F)cc32)CC1`, for which the T/C was 108 % of control (dose: 0.14 mg/kg/injection, schedule: Q04DX003 (ip), vehicle: saline); 100 % of control (dose: 0.29 mg/kg/injection, schedule: Q04DX003 (ip), vehicle: saline); 98 % of control (dose: 0.58 mg/kg/injection, schedule: Q01DX009 (ip), vehicle: saline); 99 % of control (dose: 0.58 mg/kg/injection, schedule: Q04DX003 (ip), vehicle: saline); 98 % of control (dose: 1.17 mg/kg/injection, schedule: Q01DX009 (ip), vehicle: saline); 104 % of control (dose: 1.17 mg/kg/injection, schedule: Q04DX003 (ip), vehicle: saline). Besides, the T/C runs as follows: (dose: 2.34 mg/kg/injection, schedule: Q01DX009 (ip), vehicle: saline) 96 % of control; (dose: 2.34 mg/kg/injection, schedule: Q04DX003 (ip), vehicle: saline) 105 % of control and 116 % of control; (dose: 4.68 mg/kg/injection, schedule: Q01DX009 (ip), vehicle: saline) 90 % of control; (dose: 4.68 mg/kg/injection, schedule: Q04DX003 (ip), vehicle: saline) 122 % of control; (dose: 9.37 mg/kg/injection, schedule: Q04DX003 (ip), vehicle: saline) 119 % of control.

With `CCOC(=O)C1C(=O)C(CN(CCCl)CCCl)C(=O)C(C(=O)OCC)C1c1ccc(O)cc1` (stereo not drawn), under setting [1], the T/C was 158 % of control.

In the case of `Cc1c(C)c([N+](=O)[O-])c(Br)c(C)c1[N+](=O)[O-]`, the T/C under setting [5] is 91 % of control and the T/C under setting [6] was 98 % of control.

Turning to `COc1cc2cc(c1Cl)N(C)C(=O)/C=C/C1(C)OC1C(C)C1CC(O)(NC(=O)O1)C(OC)C=C/C=C(\C)C2` (stereo not drawn), the T/C (dose: 1.3 micrograms/kg/injection, schedule: Q01DX009 (ip), vehicle: saline + alcohol) is 100 % of control; the T/C (dose: 2.5 micrograms/kg/injection, schedule: Q01DX009 (ip), vehicle: saline + alcohol) was 97 % of control; the T/C (dose: 5.0 micrograms/kg/injection, schedule: Q01DX009 (ip), vehicle: saline + alcohol) is 97 % of control; the T/C (dose: 10.0 micrograms/kg/injection, schedule: Q01DX009 (ip), vehicle: saline + alcohol) is 92 % of control.
